# Experimental data as given in EP1501797B1, “3-(SUBSTITUTED AMINO)-1H-INDOLE-2-CARBOXYLIC ACID ESTER AND 3-(SUBSTITUTED AMINO)-BENZO[B]THIOPHENE-2-CARBOXYLIC ACID ESTER DERIVATIVES AS INTERLEUKIN-4 GENE EXPRESSION INHIBITORS” (Aventis Pharmaceuticals Inc., priority 2002, dated 2003).
# Experiments:
# [1] = Human primary Th2 cells, proliferation (viability, MTS assay); format: cell-based; settings: human, th2 cells, MTS, read-out: Proliferation (% control) mean
# Method: Briefly, CD4^+CD45RA^+ T cells, isolated from donor peripheral blood mononuclear cells of healthy donors, are educated in the presence of anti-CD3/CD28 antibodies and various growth factors to obtain either a Thl-like or Th2-like phenotypes as determined by the known cytokine profiles of these two cell types.
# Peripheral blood mononuclear cells (PBMC) are prepared from human blood by Ficoll-Hypacque (Pharmacia). The cells are washed two times in Hanks balanced salt solution (HBSS) and counted.
# Naive T cells (CD4^+/CD45RA ) are prepared by negative selection method using following antibodies and Dynabeads: anti-CD8, anti-HLA-DR, (where HLA means human leucocyte antigen) anti-CD14, anti-CD16, anti-CD19, anti-CD45RO antibodies (all from R&D Systems, 1-2 µg/ml) are added to the cells, and the cells are kept on ice for 30 min. The cells are washed two times in HBSS, and goat anti- mouse Ig-beads, (bead:target ratio, 5:1) are added. The cells and beads are slowly rotated at 4°C for 20 min. (following the protocol supplied from Dynal). The supernatant is removed and fresh goat anti-mouse Ig-beads are added to the supernatant, which is slowly rotated at 4°C for 20 min. The cells are counted and phenotypically characterized by flow cytometric analysis.
# CD4^+/CD45RA^+ cells at a density of 10^6/ml in RPMI, is prepared and added to RPMI medium containing 10% Hyclone serum/ glutamine and 1-2 µg/ml anti-CD28 Ab. The cells are split in two aliquots. For Th1 cells: anti-IL-4 Ab (1-2 µg/ml), IFN-γ (1 µg/ml, or 5000 units/ml) are added to the wells. For Th2 cells: IL-4 (100-200 ng/ml), anti-IFN-γ neutralizing Ab (1-2 µg/ml), anti-IL-12 neutralizing Ab (1-2 µg/ml) are added into the wells. […] The cells are transferred to fresh wells and grown in 200 units/ml IL-2 for 2 weeks by feeding them every other day with IL-2 containing medium and splitting the cultures 1:2 or 1:3 as needed. The degree of polarization is determined by intracellular staining of cells with anti-IFN-γ and anti-IL-4 antibodies from Pharmingen, and using flow cytometry from Becton Dickinson (BD), according to manufacturers description. The cells are stimulated with PHA and alloantigens at day 14 and 28 as described below. Eight days after the second allostimulation the cells can be used for compound screening or frozen for future use. For compound testing, large quantities of Th1 and Th2 cells derived from a given donor (NYTh1 and NYTh2) were expanded and frozen as aliquots in liquid nitrogen. The cells are thawed and cultured as and when needed. The thawed cells are stimulated with alloantigen/PHA combination. The cells are used for compound screening after 8-10 days in culture.
# Re-stimulation by allogeneic cells: Human PBMCs, to be used as alloantigens, are isolated from freshly drawn blood by Ficoll separation. […] Cells are counted and diluted to a final concentration of 2 x 10^6/ml in medium containing 10 µg/ml PHA and 200 units/ml IL-2.
# Ninetysix well Falcon tissue culture plates (Fisher Scientific) are coated with 100 microliters per well of 10 µg/ml anti-CD3 (PharMingen) antibody in phosphate buffered saline (PBS) and stored at 4°C one day before the experiment.
# On the day of assay, anti-CD3 antibody coated plates are washed with PBS once to remove all soluble anti-CD3 antibody. […] All compounds and controls are assayed in triplicates.
# [2] = system: sheep allergic to Ascaris suum; experiment: Sheep asthma model (Ascaris suum antigen challenge); format: in vivo
# Method: Briefly, transpulmonary pressure, pulmonary resistance (RL), specific lung resistance (SRL airway hyperreactivity, airway responsiveness, are determined.
# Venous blood samples (-5 ml) are obtained from a peripheral leg vein or the jugular vein for pharmacokinetic data. Measurement of Airway Mechanics: The unsedated sheep are restrained in a cart in the prone position with their heads immobilized. After topical anesthesia of the nasal passages with 2% lidocaine solution, a balloon catheter is advanced through one nostril into the lower esophagus. The animals are […] with a cuffed endotracheal tube through the other nostril using a flexible fiberoptic bronchoscope as a guide. (The cuff of the endotracheal tube is inflated only for the measurement of airway mechanics and during aerosol challenges to prevent undue discomfort. This procedure has no effect on airway mechanics). Pleural pressure is estimated with the esophageal balloon catheter (filled with one ml of air) which is positioned 5-10 cm from the gastroesophageal junction. In this position the end expiratory pleural pressure ranges between -2 and -5 cm H20. […] Lateral pressure in the trachea is measured with a sidehole catheter (inner dimension, 2.5 mm) advanced through and positioned distal to the tip of the endotracheal tube. Transpulmonary pressure, the difference between tracheal and pleural pressure, is measured with a differential pressure transducer catheter system. […] The signals of flow and transpulmonary pressure is recorded on an oscilloscope recorder which is linked to a computer for on-line calculation of RL from transpulmonary pressure, respiratory volume (obtained by digital integration) and flow. […] Immediately after the measurement of RL, thoracic gas volume (Vtg) is measured in a constant volume body plethysmograph to obtain specific lung resistance (SRL = RL . Vtg) in L x cm H20/LPS. […] To assess airway responsiveness, the cumulative carbachol dose in breath units (BU) that increases SRL 400% over the post-buffer value (i.e. PC400) is calculated from the dose response curve. […]
# [3] = 3 mg/kg aerosol 30 min before antigen challenge, 2 sheep per group, FIG. 3A
structure (smiles),measurement,setting,value
"O=C(O)c1[nH]c2ccccc2c1Nc1ccncc1 [Example 28, 3-(4-Pyridinylamino)-1H-indole-2-carboxylic acid]",viability at 0.01 µM,[1]; 0.01 µM,89.5%
same,viability at 0.03 µM,[1]; 0.03 µM,85%
same,viability at 0.1 µM,[1]; 0.1 µM,86.7%
same,viability at 0.3 µM,[1]; 0.3 µM,80.6%
same,viability at 1 µM,[1]; 1 µM,77.2%
same,viability at 3 µM,[1]; 3 µM,72%
same,viability at 10 µM,[1]; 10 µM,71.5%
same,"acute increase in specific lung resistance (SRL), early bronchial response",[2]; [3],did not affect
same,late bronchial response (SRL),[2]; [3],blocked the late response
same,post challenge airway responsiveness (PC400 decrease after antigen challenge),"[2]; 3 mg/kg, 2 sheep, FIG. 3B",prevented this effect
